Results as given in publication PMC9958940 (Viruses, 2023).
Starred links: 1 amine or outer side, 2 acyl side, 3 side chain; linkers in the order of their positions; H or OH if unused. Positions of bridges follow the written chain, without caps; N, C: chain ends. Non-standard residues stand in square brackets, D forms with d. Residues, ends and D or L forms follow the SMILES beside them. *: point of attachment. hTyr(3S-OH,4S-OH,3'-OSO3H) = N[C@H](C(=O)O)[C@H](O)[C@@H](O)c1ccc(O)c(OS(=O)(=O)O)c1; Orn(4R-OH,5R-OH) = O=C([C@H](C[C@@H](O)[C@@H](O)N[*:3])N[*:1])[*:2]; Pro(3S-OH,4S-Me) = C[C@H]1CN[C@H](C(=O)O)[C@H]1O; X1 = CCCCCOc1ccc(-c2cc(-c3ccc(C(=O)*)cc3)no2)cc1; Gln(3R-OH) = NC(=O)C[C@@H](O)[C@H](N)C(=O)O; Hyp = O=C(O)[C@@H]1C[C@@H](O)CN1

How the values were obtained:
[1] = tested on: SARS-CoV-2 R10/E796G C799F; assay type: cell-based; details: read-out: SARS-CoV-2 RNA IC50, R10/E796G C799F
[2] = tested on: SARS-CoV-2 E406W variant; assay type: cell-based; details: read-out: SARS-CoV-2 RNA IC50, E406W

## CCCCCOc1ccc(-c2cc(-c3ccc(C(=O)N[C@H]4C[C@@H](O)[C@@H](O)NC(=O)[C@@H]5[C@@H](O)[C@@H](C)CN5C(=O)[C@H]([C@H](O)CC(N)=O)NC(=O)[C@H]([C@H](O)[C@@H](O)c5ccc(O)c(OS(=O)(=O)O)c5)NC(=O)[C@@H]5C[C@@H](O)CN5C(=O)[C@H]([C@@H](C)O)NC4=O)cc3)no2)cc1 [Micafungin] (X1-[Orn(4R-OH,5R-OH)]T[Hyp][hTyr(3S-OH,4S-OH,3'-OSO3H)][Gln(3R-OH)][Pro(3S-OH,4S-Me)]; lactam 1-C)
[1]
  IC50: 31.3 µM
[2]
  IC50: 21.7 µM
